Patent US6060516A, “N^1 -propargylhydrazines, N^2 -propargylhydrazines and their analogs for the treatment of depression, anxiety and neurodegeneration” (CV Technologies, Inc., priority 1998, dated 2000)

Assays:
MAO-A = MAO-A inhibition ex vivo in DSP-4 treated mice (brain); design: species or system mouse
Method: The compounds were evaluated for ex vivo monoamine oxidase-A inhibiting activity using the radiochemical procedure of Lyles, G. A. and Callingham, B. A. (1982). […] Biochem. Pharmacol. 31: 1417-1424. Radiolabelled 5-hydroxytryptamine was used as a substrate for monoamine oxidase-A. The compounds of interest were either injected intraperitonealy in DMSO or administered by gavage in water for various periods. The animals were killed by decapitation and the brains and livers immediately removed and frozen until assayed for monoamine oxidase-A activity. Tissues were homogenized and appropriately diluted in buffer prior to incubation. Incubations proceeded at 37° C. for 10 minutes. Incubation was terminated by the addition of acid and the radiolabelled product (5-hydroxyindoleacetaldehyde and 5-hydroxyindoleacetic acid) was extracted and quantified by liquid scintillation counting procedures. Incubations were done in triplicate and incubations containing phenelzine were included for comparison. The percent inhibition of monoamine oxidase-A activity compared to controls containing no drug was calculated.
Neuroprotectant activity was evaluated by examining the prevention of DSP-4 induced noradrenaline depletion in mouse hippocampus as described in Yu, P. H., Davis, B. A., Fang, J. and Boulton, A. A. (1994), Neuroprotective effect of some monoamine oxidase-B inhibitors against DSP-4 induced noradrenaline depletion in the mouse hippocampus, J. Neurochem. 63: 1820-1828. Briefly, mice were injected (i.p.) with either 20% DMSO or potential neuroprotectants (10 mg/kg in 20% DMSO). One hour later they were injected with either water or DSP-4 (50 mg/kg in water). One week later the mice were killed and the brains removed and the hippocampus dissected out. The hippocampus was frozen and saved for estimation of noradrenaline and other aminergic neurotransmitters and their metabolites as in Sloley, B. D. and Goldberg J. I. (1991), Determination of γ-glutamyl conjugates of monoamines by means of high-performance liquid chromatography with electrochemical detection and application to gastropod tissues, J. Chromatog. 567: 49-56. The rest of the brain was frozen and retained for estimation of monoamine oxidase activities ex vivo as described earlier.

[1] = system: rat brain and liver monoamine oxidase-A; assay: Monoamine oxidase-A inhibiting activity ex vivo; type: in vivo
Method: Radiolabelled 5-hydroxytryptamine was used as a substrate for monoamine oxidase-A. The compounds of interest were either injected intraperitonealy in DMSO or administered by gavage in water for various periods. The animals were killed by decapitation and the brains and livers immediately removed and frozen until assayed for monoamine oxidase-A activity. Tissues were homogenized and appropriately diluted in buffer prior to incubation. Incubations proceeded at 37° C. for 10 minutes. Incubation was terminated by the addition of acid and the radiolabelled product (5-hydroxyindoleacetaldehyde and 5-hydroxyindoleacetic acid) was extracted and quantified by liquid scintillation counting procedures. Incubations were done in triplicate and incubations containing phenelzine were included for comparison. The percent inhibition of monoamine oxidase-A activity compared to controls containing no drug was calculated.
Values are the mean ± the standard error based on (n) determinations.
Oral doses were administered as 75 μmol/kg on day 1, 75 μmol/kg on
day 2 and the animals were killed 5 hours later.

[2] = system: NA, DA, 5-HT, 5-HIAA and DOPAC concentrations in rat hypothalamus; assay: Rat hypothalamus amine and amine metabolite concentrations; type: in vivo; settings: 2 × 75 μmol/kg per os
[3] = target: T1, rat brain monoamine oxidase-B (Rattus norvegicus, UniProt P19643); assay: Monoamine oxidase-B inhibiting activity in vitro (radiochemical, β-phenylethylamine substrate, rat brain homogenate); type: biochemical; settings: for inhibition at 100 µM: 1 × 10^-4 M; for inhibition at 10 µM: 1 × 10^-5 M; for inhibition at 1 µM: 1 × 10^-6 M; for inhibition at 0.1 µM: 1 × 10^-7 M; for inhibition at 0.01 µM: 1 × 10^-8 M
T1 construct: appropriately diluted homogenates of rat brain or liver; from tissue; host or cells: rat brain or liver homogenate
T1 sequence (P19643 1-520): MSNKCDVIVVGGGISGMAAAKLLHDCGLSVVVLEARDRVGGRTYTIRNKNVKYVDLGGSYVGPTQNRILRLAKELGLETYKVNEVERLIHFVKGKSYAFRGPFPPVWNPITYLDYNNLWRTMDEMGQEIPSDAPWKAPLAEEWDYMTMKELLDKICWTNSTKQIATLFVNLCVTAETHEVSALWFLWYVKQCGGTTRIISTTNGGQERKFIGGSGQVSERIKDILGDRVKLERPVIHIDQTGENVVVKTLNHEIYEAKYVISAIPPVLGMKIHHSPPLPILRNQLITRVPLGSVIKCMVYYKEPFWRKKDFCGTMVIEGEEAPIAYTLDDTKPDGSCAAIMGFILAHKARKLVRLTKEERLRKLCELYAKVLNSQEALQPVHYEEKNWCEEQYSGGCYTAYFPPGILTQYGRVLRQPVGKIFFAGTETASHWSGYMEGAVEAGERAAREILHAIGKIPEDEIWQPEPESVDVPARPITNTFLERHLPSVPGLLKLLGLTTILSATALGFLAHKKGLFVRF
Method: Radiolabelled β-phenylethylamine was employed as a substrate for monoamine oxidase-B. Various concentrations of the compounds of interest were incubated in appropriately diluted homogenates of rat brain or liver in a 0.2 M potassium phosphate buffer. Incubations proceeded at 37° C. for 10 minutes. Incubation was terminated by the addition of acid and the radiolabelled product (phenylacetaldehyde and phenylacetic acid) was extracted and quantified by liquid scintillation counting procedures. Incubations were done in triplicate and incubations containing phenelzine were included for comparison. The percent inhibition of monoamine oxidase-B activity compared to controls containing no drug was calculated.

[4] = brain, 150 μmol/kg, 5 hr, i.p. in 10% DMSO
[5] = brain, 2 × 75 μmol/kg per os (day 1 and day 2, killed 5 hours later)
[6] = liver, 2 × 75 μmol/kg per os (day 1 and day 2, killed 5 hours later)
[7] = brain, 5.75 μmol/kg, 5 hr, i.p. in 10% DMSO
[8] = liver, 5.75 μmol/kg, 5 hr, i.p. in 10% DMSO

SMILES | % Inhibition Monoamine Oxidase-A [1, 4] [%] | % Inhibition Monoamine Oxidase-A [1, 5] [%] | % Inhibition Monoamine Oxidase-A [1, 6] [%] | 5-HT [2] [ng/g] | DA [2] [ng/g] | inhibition at 100 µM [3] [%] | inhibition at 10 µM [3] [%] | inhibition at 1 µM [3] [%] | inhibition at 0.1 µM [3] [%] | inhibition at 0.01 µM [3] [%] | % Inhibition Monoamine Oxidase-A [1, 7] [%] | % Inhibition Monoamine Oxidase-A [1, 8] [%] | further results
C#CCN(CCc1ccccc1)NC(C)=O [CVT-P041, N^1 -propargyl-N^2 -acetylphenelzine] | 98.4 ± 0.0 | 92.9 ± 1.7 | 98.3 ± 0.2 | 946 | 553 ± 129 | 92.7 | 71.3 | 28.8 | 6.2 | -2 |  |  | MAO-A % Inhibition (MAO-A; 10 mg/kg then DSP-4 50 mg/kg, saline control experiment): 4.3 ± 6.2%
C#CCN(N)CCc1ccccc1 [CVT-P040, N^1 -propargylphenelzine] | 96.7 ± 0.6 | 96.9 ± 0.8 | 95.4 ± 0.7 |  |  | 99.7 | 97.9 | 88.8 | 59.8 | 19.9 | 9.1 ± 4.9 | 43.7 ± 5.4 | MAO-A % Inhibition (MAO-A; 10 mg/kg i.p. then DSP-4 50 mg/kg, 20% DMSO control experiment): 57.9 ± 2.9%; preference for MAO-A inhibition (MAO-A; DSP-4 experiment, 10 mg/kg, in words): strong preference for MAO-A inhibition; % Inhibition Monoamine Oxidase-A ([1]; brain, 0.58 μmol/kg, 5 hr, i.p. in 10% DMSO): 7.2 ± 5.1%; % Inhibition Monoamine Oxidase-A ([1]; brain, 57.5 μmol/kg, 5 hr, i.p. in 10% DMSO): 86.6 ± 6.7%; % Inhibition Monoamine Oxidase-A ([1]; brain, 173 μmol/kg, 5 hr, i.p. in 10% DMSO): 98.4 ± 0.1%; % Inhibition Monoamine Oxidase-A ([1]; liver, 0.58 μmol/kg, 5 hr, i.p. in 10% DMSO): -6.1 ± 4.4%; % Inhibition Monoamine Oxidase-A ([1]; liver, 57.5 μmol/kg, 5 hr, i.p. in 10% DMSO): 91.7 ± 2.3%; % Inhibition Monoamine Oxidase-A ([1]; liver, 173 μmol/kg, 5 hr, i.p. in 10% DMSO): 97.7 ± 0.3%
NNCCc1ccccc1 [phenelzine, 1-(2-phenyl) ethylhydrazine, reference compound] | 97.2 | 96.5 ± 1.2 | 97.7 ± 0.3 | 1232 ± 87 | 607 ± 103 | 100 | 100 | 90.1 | 18.3 | 6.9 | 9.1 ± 5.3 | 36.4 ± 5.3 | 
